Experimental data from patent publication US20240139185A1, “COMPOUNDS THAT PARTICIPATE IN COOPERATIVE BINDING AND USES THEREOF” (Revolution Medicines, Inc., priority 2018, published 2024).
Read-outs that look alike come from different tables or passages of the source.

What was measured:
[1] = target: cyclophilin A (CYPA) (Homo sapiens, UniProt P62937); test: CYPA-compound binary complex formation by SPR; details: read-out: CYPA Binding Affinity
Procedure: In order to determine the affinity of compounds of the invention for cyclophilin A (CYPA), we employed surface plasmon resonance binding analysis using the following reagents, instruments and protocol as supplied by the instrument manufacturer.
Reagents and Instrument • 1. Instrument: Biacore S200 (GE Healthcare Life Sciences) • 2. Running buffer: 1×HBS-P+ (1×HBS supplemented with 0.05% Tween20), pH7.4, and 2% DMSO. • 3. Ligand: CypA-Avi • 4. Analyte: Serial dilution of WDB compounds from 50 μM to 0 μM, 2-fold dilution, 10 points (10 mM stock concentration). • 5. Sensor kit: Biotin CAPture Kit (BR28-9202-34, GE Healthcare Life Sciences) • 6. Regeneration buffer: 1 volume of 1 M NaOH and 3 volumes of 8 M guanidine hydrochloride (supplied with CAPture Kit, BR28-9202-34, GE Healthcare Life Sciences)
Experimental Procedure • 1. Capture of CAPreagent: 2 μl/min for 60 seconds. • 2. Immobilization of ligand CypA: Use Fc1 as the reference cell; immobilize CypA at 4 μg/ml using 5 μl/min flowrate on Fc2 (60s), Fc3 (80s) and Fc4 (80s), respectively. • 3. Binding of analytes: Inject WDB compound dilutions sequentially at 50 μl/min for association of 60 seconds. And then let it dissociates in buffer at 50 μl/min for 60 seconds. • 4. Regeneration: 2 injections of regeneration buffer at 30 μl/min for 60 seconds to regenerate the chip surface. • 5. Solvent correction: Run solvent correction at beginning and the end of the run. If run more than 6 compounds, add additional solvent correction every 6 compounds. • 6. Data fitting with built-in Biacore Evaluation Software: Steady-state fitting.

[2] = test system: pERK in H358 cells; test: pERK inhibition in H358 cells; format: cell-based, human; details: read-out: Cellular pERK inhibition
Procedure: H358 cells (5500 cells) derived from a human lung cancer were plated in a 96 well plate in media (100 uL, RPMI with 10% FBS). After 24 hours, cells were treated for 4 hours with compound or DMSO. Cells were washed twice with room temperature TBS (200 uL) and fixed for 20 minutes with 4% paraformaldehyde diluted with TBS (150 uL). Cells were washed four times for five minutes with 0.1% TritonX/TBS (150 uL) to permeabilize the membrane. Cells were incubated with TBS blocking buffer (100 uL) at room temperature for 60 minutes. Primary antibody (Phospho-p44/42 MAPK (Erk1/2) (Thr202/Tyr204) (D13.14.4E) XP® Rabbit mAb #4370, Cell Signaling Technology; 1:200) was added, and the cells were incubated overnight at 4 C. The cells were washed four times for five minutes with 0.1% Tween 20/TBS (150 uL). Secondary antibody (IRDye® 800CW Goat-Anti-Rabbit IgG, Li-Cor Biosciences; 1:1000) and DRAQ5™ (Invitrogen; 1:2000) was added, and the cells were incubated for 1 hour at room temperature. The cells were washed four times for five minutes with 0.1% Tween 20/TBS (150 uL) and scanned using the LICOR (700 and 800 nm).

[3] = target: T1, BRAF-GTP-KRAS-G12C complex (Homo sapiens, UniProt P01116+P62937, G12C); test: KRAS-BRAF complex disruption through competition with CYPA-compound by TR-FRET; details: biochemical BRAF-KRAS G12C-GTP disruption assay EC50, with CYPA
T1 construct: 50 nM of His6-KRas G12C-GTP (1-169); 500 nM of tagless CypA (1-165)
Procedure: In this example, TR-FRET was used to measure the compound-facilitated disruption of a KRAS-BRAF complex. A mixture of tagless Cyclophilin A, His6-KRAS G12C-GMP-PNP, and GST-BRAF RAS binding domain was added to a 384-well assay plate containing compounds of the invention and incubated for 3 hours. A mixture of Anti-His Eu-W1024 and anti-GST allophycocyanin was then added and the reaction was incubated for an additional 1.5 hours. TR-FRET signal was read on an EnVision microplate reader (Perkin Elmer, Ex 320 nm, Em 665/615 nm). Compounds that facilitate disruption of a KRAS_BRAF complex were identified as those eliciting a decrease in the TR-FRET ratio relative to DMSO control wells. To determine the presenter-dependence of the compound-mediated KRAS-BRAF complex disruption, Cyclophilin A was left out of the initial incubation (see Table 5). To determine G12C specificity of the compound-mediated KRAS-BRAF complex disruption, wild-type KRAS was used instead of G12C KRAS (see Table 5).
Reagents and Instrument • Tagless CYPA; 519 μM in PBS buffer, pH 7.4 • GST BRAF; 110 μM in PBS buffer, pH 7.4 • His6-KRASG12C-GMP-PNP; 50 μM in PBS buffer, pH 7.4 • His6-KRASWT-GMP-PNP; 40 μM in PBS buffer, pH 7.4 • Anti-His Eu-W1024 (LANCE® Eu-W1024; Perkin Elmer) • Anti-GST allophycocyanin (Anti-GST IgG conjugated to SureLight®-Allophycocyanin; Perkin Elmer; Product Number AD0059G) • Test compounds, 10 mM in 100% DMSO • EnVision (Perkin Elmer) • Combi MultiDrop liquid dispenser with 8-channel small volume cassette • 384-well ProxiPlate (black)
Experimental Protocol • 1. Use Mosquito to dispense 100 nL/well of compounds (varying concentration in […]) into 384-well black ProxiPlate to make assay-ready-plate (ARP). • 2. Make assay buffer containing 25 mM Hepes pH 7.3, 100 mM NaCl, 5 mM MgCl2, 0.05% BSA, and 0.002% Tween-20. • 3. Make PRE-MIX A: delivers final concentrations of 50 nM of His6-KRas G12C-GTP (1-169) and 500 nM of tagless CypA (1-165) in assay buffer. • a. For presenter dependence experiments, omit addition of tagless CypA • b. For G12C/wt specificity experiments, substitute His6-KRas WT-GTP (1-169) for His6-KRas G12C-GTP (1-169) • 4. Use MultiDrop Combi to dispense PRE-MIX A into ARP, 7 μl/well. Incubate 3 hr at room temperature. • 5. Make PRE-MIX B: delivers final concentrations of 10 nM of anti-His Eu-W1024 and 50 nM of anti-GST APC. • 6. Use MultiDrop Combi to dispense PRE-MIX B into ARP, 3 μl/well. Shake briefly on Combi and incubate 1.5 hr at room temperature. • 7. Read on EnVision (Ex: 320 nm; Em1: 615 nm; Em2: 665 nm). • 8. Data is processed using Dotmatics. Curves are fit using a 4-parameter non-linear fit to determine the EC50 value for formation of the ternary complex.

SMILES	Kd [1]	IC50 ([2]; 4 hours treatment)	EC50 [3]	IC50 ([2]; Homo sapiens, NCI-H358, 4 hours treatment)
CCc1cn2c3cc(ccc13)-c1cc(O)cc(c1)CC(NC(=O)C(C(C)C)N(C)C(=O)C1CN(C(=O)CCl)C1)C(=O)N1CCCC(N1)C(=O)OCC(C)(C)C2 (stereo not drawn) [Compound 99]	> 15 µM	≤ 1 µM	≤ 0.5 µM	–
Cc1cc2ccc3cc2n1CC(C)(C)COC(=O)[C@@H]1CCCN(N1)C(=O)[C@@H](NC(=O)[C@H](C(C)C)N(C)C(=O)C1CN(C(=O)CCl)C1)Cc1cc(O)cc-3c1 [Compound 103]	> 15 µM	1 to 10 µM	≤ 0.5 µM	–
C=CC(=O)N1CCC(C(=O)N(C)C(C(=O)NC2Cc3cc(O)cc(c3)-c3ccc4c(C(C)(C)C#N)cn(c4c3)CC(C)(C)COC(=O)C3CCCN(N3)C2=O)C(C)C)C1 (stereo not drawn) [Compound 89]	5 to 15 µM	1 to 10 µM	0.5 to 5 µM	–
CC[C@@H](C(=O)N[C@H]1Cc2cc(O)cc(c2)-c2ccc3c(C(C)(C)C#N)cn(c3c2)CC(C)(C)COC(=O)[C@@H]2CCCN(N2)C1=O)N(C)C(=O)C1CN(C(=O)CCl)C1 [Compound 56]	> 15 µM	> 10 µM	≤ 0.5 µM	–
CC(C)[C@@H](C(=O)N[C@H]1Cc2cc(O)cc(c2)-c2ccc3c(C(C)(C)C#N)cn(c3c2)CC(C(F)F)COC(=O)[C@@H]2CCCN(N2)C1=O)N(C)C(=O)C1CN(C(=O)CCl)C1 (single isomer, unassigned) [Compound 37]	5 to 15 µM	1 to 10 µM	≤ 0.5 µM	–
CCN(C(=O)C1CN(C(=O)CCl)C1)[C@H](C(=O)N[C@H]1Cc2cc(O)cc(c2)-c2ccc3c(C(C)(C)C#N)cn(c3c2)CC(C)(C)COC(=O)[C@@H]2CCCN(N2)C1=O)C(C)C [Compound 65]	> 15 µM	1 to 10 µM	≤ 0.5 µM	–
COCC1COC(=O)C2CCCN(N2)C(=O)C(NC(=O)C(C(C)C)N(C)C(=O)C2CN(C(=O)CCl)C2)Cc2cc(O)cc(c2)-c2ccc3c(C(C)(C)C#N)cn(c3c2)C1 (single isomer, unassigned) [Compound 24]	5 to 15 µM	≤ 1 µM	≤ 0.5 µM	–
CC(C)C(C(=O)NC1Cc2cc(O)cc(c2)-c2ccc3c(C(C)(C)C#N)cn(c3c2)CC(Cl)COC(=O)C2CCCN(N2)C1=O)N(C)C(=O)C1CN(C(=O)CCl)C1 (single isomer, unassigned) [Compound 41]	≤ 5 µM	1 to 10 µM	≤ 0.5 µM	–
CC(C)[C@@H](C(=O)N[C@H]1Cc2cc(O)cc(c2)-c2ccc3c4cc(C#N)ccc4n(c3c2)CC(C)(C)COC(=O)[C@@H]2CCCN(N2)C1=O)N(C)C(=O)C1CN(C(=O)CCl)C1 [Compound 68]	≤ 5 µM	1 to 10 µM	≤ 0.5 µM	–
CC(C)[C@@H](C(=O)N[C@H]1Cc2cc(O)cc(c2)-c2ccc3c(CCC#N)cn(c3c2)C[C@H](C)COC(=O)[C@@H]2CCCN(N2)C1=O)N(C)C(=O)C1CN(C(=O)CCl)C1 [Compound 76]	≤ 5 µM	≤ 1 µM	≤ 0.5 µM	–
CC(C)[C@@H](C(=O)N[C@H]1Cc2cc(O)cc(c2)-c2ccc3c(C#N)cn(c3c2)CC(C)(C)CNC(=O)[C@@H]2CCCN(N2)C1=O)N(C)C(=O)C1CN(C(=O)CCl)C1 [Compound 3, 1-(2-chloroacetyl)-N-((2S)-1-(((6^3S,4S)-1^3-cyano-2^5-hydroxy-10,10-dimethyl-5,7-dioxo-6^1,6^2,6^3,6^4,6^5,6^6-hexahydro-1^1H-8-aza-1(6,1)-indola-6(1,3)-pyridazina-2(1,3)-benzenacycloundecaphane-4-yl)amino)-3-methyl-1-oxobutan-2-yl)-N-methylazetidine-3-carboxamide]	≤ 5 µM	–	≤ 0.5 µM	> 10 µM

Now from value to compound:

Kd [1]	IC50 ([2]; 4 hours treatment)	EC50 [3]	IC50 ([2]; Homo sapiens, NCI-H358, 4 hours treatment)	SMILES
5 to 15 µM	> 10 µM	≤ 0.5 µM	–	Cc1nc2ccc3cc2n1CC1(CC1)COC(=O)[C@@H]1CCCN(N1)C(=O)[C@@H](NC(=O)[C@H](C(C)C)N(C)C(=O)C1CN(C(=O)CCl)C1)Cc1cc(O)cc-3c1 [Compound 151]
≤ 5 µM	≤ 1 µM	≤ 0.5 µM	–	C=CC(=O)N1CCC(C(=O)N(C)C(C(=O)NC2Cc3cc(O)cc(c3)-c3ccc4c(c3)c(c(C#N)n4CC)CC(C)(C)COC(=O)C3CCCN(N3)C2=O)C2CCCC2)C1 (stereo not drawn) [Compound 397]
5 to 15 µM	> 10 µM	0.5 to 5 µM	–	CC(C)[C@@H](C(=O)N[C@H]1Cc2cc(O)cc(c2)-c2cc3c(ccc(C#N)c3s2)OCCCOC(=O)[C@@H]2CCCN(N2)C1=O)N(C)C(=O)C1CN(C(=O)CCl)C1 [Compound 172]
> 15 µM	1 to 10 µM	≤ 0.5 µM	–	C=CC(=O)N1CCC(C(=O)N(C)C(C(=O)NC2Cc3cc(O)cc(c3)-c3ccc4c(c3)N(CC(C)(C)COC(=O)C3CCCN(N3)C2=O)CC4(C=CC#N)COC)C(C)C)C1 (stereo not drawn) [Compound 404]
5 to 15 µM	> 10 µM	> 5 µM	–	CCN1CCCN2C[C@H](C)COC(=O)[C@@H]3CCCN(N3)C(=O)[C@@H](NC(=O)[C@H](C(C)C)N(C)C(=O)C3CN(C(=O)CCl)C3)Cc3cc(O)cc(c3)-c3ccc1c2c3 [Compound 187]
≤ 5 µM	> 10 µM	> 5 µM	–	CC(C)[C@@H](C(=O)N[C@H]1Cc2cc(O)nc(c2)-c2ccc3c(C(C)(C)C#N)cn(c3c2)CC(C)(C)COC(=O)[C@@H]2CCCN(N2)C1=O)N(C)C(=O)C1CN(C(=O)CCl)C1 [Compound 339]
≤ 5 µM	1 to 10 µM	≤ 0.5 µM	–	CC(C)[C@@H](C(=O)N[C@H]1Cc2cc(O)cc(c2)-c2ccc3c(-c4ccnn4C)cn(c3c2)CC(C)(C)COC(=O)[C@@H]2CCCN(N2)C1=O)N(C)C(=O)C1CN(C(=O)CCl)C1 [Compound 239]
